From patent US20220289691A1, “5-AMINO-SUBSTITUTED PYRAZOLES AND TRIAZOLES AS PEST CONTROL AGENTS” (Bayer Aktiengesellschaft, priority 2019, published 2022)
Where two headings read alike, the source gives them in different places.

Columns and labels:
Diabrotica balteata = Diabrotica balteata spray test; format: in vivo; details: 168 h, read-out: efficacy (wheat plant growth); for pest or weed control at 500 g/ha: 500 g/ha (=160 μg/cavity); for pest or weed control at 125 g/ha: 125 g/ha (=40 μg/cavity)
Protocol: Diabrotica balteata—Spray Test Solvent: 78 parts by weight of acetone • • 1.5 parts by weight of dimethylformamide Emulsifier: alkylaryl polyglycol ether
(§1) To produce a suitable active compound formulation, 1 part by weight of active compound is dissolved using the stated parts by weight of solvent and made up with water containing an emulsifier concentration of 1000 ppm until the desired concentration is attained. To produce further test concentrations, the formulation is diluted with emulsifier-containing water.
Pre-swollen wheat grains (Triticum aestivum) are incubated in a multiwell plate filled with agar and a little water for one day (5 seed grains per cavity). The germinated wheat grains are sprayed with an active compound formulation of the desired concentration. Subsequently, each cavity is infected with 10-20 beetle larvae of Diabrotica balteata.
After 7 days, the efficacy in % is determined. 100% means that all wheat plants have grown as in the untreated, uninfected control; 0% means that no wheat plant has grown.

Spodoptera frugiperda = Spodoptera frugiperda spray test; format: in vivo; details: foliar, 168 h, 100 g/ha, maize leaf discs, after 7 days, read-out: efficacy (caterpillars killed)
Protocol: Spodoptera frugiperda—Spray Test Solvent: 78.0 parts by weight of acetone • • 1.5 parts by weight of dimethylformamide Emulsifier: alkylaryl polyglycol ether
as §1
Leaf discs of maize (Zea mays) are sprayed with an active compound formulation of the desired concentration and, after drying, populated with caterpillars of the fall armyworm (Spodoptera frugiperda).
After 7 days, the efficacy in % is determined. 100% means that all the caterpillars have been killed; 0% means that no caterpillar has been killed.

[1] = 100 g/ha (=32 μg/cavity), beetle larvae on wheat, after 7 days
[2] = beetle larvae on wheat, after 7 days

Row | SMILES | pest or weed control at 100 g/ha (Diabrotica balteata; [1]) | pest or weed control at 100 g/ha (Spodoptera frugiperda) | pest or weed control at 500 g/ha (Diabrotica balteata; [2]) | pest or weed control at 100 g/ha (Diabrotica balteata; in Triticum aestivum) | pest or weed control at 125 g/ha (Diabrotica balteata; [2])
1 | CNc1nc(-c2ccc(C=NN=C3SCCN3c3ccccc3C(C)C)cc2)nn1-c1ccc(OC(F)(F)F)cc1 [Compound I-091] | 100% | 83% | – | – | –
2 | CC(=O)Nc1nc(-c2ccc(C=NNC(=S)Nc3ccccc3C(C)C)cc2)nn1-c1ccc(OC(F)(F)C(F)(F)F)cc1 [Compound I-096] | 100% | 100% | – | – | –
3 | CNc1nc(-c2ccc(C=NNC(=S)Nc3cc(OC)ccc3C(C)C)cc2)nn1-c1ccc(OC(F)(F)F)cc1 [Compound I-084] | 100% | 100% | – | – | –
4 | CCOC(CNc1nc(-c2ccc(C=NN=C3SCC(=O)N3c3ccccc3C(C)C)cc2)nn1-c1ccc(OC(F)(F)F)cc1)OCC [Compound I-085] | 80% | 100% | – | – | –
5 | CNc1cc(-c2ccc(C=NN=C3SCC(=O)N3c3ccccc3C(C)C)cc2)nn1-c1ccc(OC(F)(F)F)cc1 [Compound I-106] | 100% | 100% | – | – | –
6 | CNc1nc(-c2ccc(C=NNC(=S)Nc3ccccc3C(C)C)cc2)nn1-c1ccc(OC(F)(F)C(F)(F)F)cc1 [Compound I-067] | 100% | 100% | 100% | – | –
7 | CNc1nc(-c2ccc(C=NN=c3scc(C)n3-c3ccccc3C(C)C)cc2)nn1-c1ccc(OC(F)(F)C(F)(F)F)cc1 [Compound I-127] | 100% | 100% | – | – | –
8 | CCOC(=O)Nc1nc(-c2ccc(NC(=O)N=C3SCC(=O)N3c3ccccc3C(C)C)cc2)nn1-c1ccc(OC(F)(F)F)cc1 [Compound I-116] | – | 100% | – | 100% | –
9 | CC(C)c1ccccc1N1C(=O)CSC1=NN=Cc1ccc(-c2nc(NCCS(C)(=O)=O)n(-c3ccc(OC(F)(F)F)cc3)n2)cc1 [Compound I-095] | 100% | 100% | – | – | –
10 | CC(C)c1ccccc1N1C(=O)CSC1=NC(=O)Nc1ccc(-c2nc(NC(=O)C(F)F)n(-c3ccc(OC(F)(F)F)cc3)n2)cc1 [Compound I-038] | 80% | 100% | 100% | – | –
11 | CCS(=O)(=O)Nc1nc(-c2ccc(C=NNC(=S)Nc3ccccc3C(C)C)cc2)nn1-c1ccc(OC(F)(F)F)cc1 [Compound I-022] | – | 100% | 100% | – | 100%
12 | CNc1nc(-c2ccc(C=NNC(=S)Nc3ccccc3C(C)C)cc2C#N)nn1-c1ccc(OC(F)(F)F)cc1 [Compound I-123] | 100% | 100% | – | – | –
13 | CC(C)c1ccccc1NC(=S)NN=Cc1ccc(-c2nc(N)n(-c3ccc(OC(F)(F)F)cc3)n2)cc1 [Compound I-021] | – | 100% | 100% | – | 100%
14 | COCCNc1nc(-c2ccc(C=NNC(=S)Nc3ccccc3C(C)C)cc2)nn1-c1ccc(OC(F)(F)F)cc1 [Compound I-072] | 100% | 100% | – | – | –
15 | CC(C)c1ccccc1NC(=S)NN=Cc1ccc(-c2nc(NC3COC3)n(-c3ccc(OC(F)(F)F)cc3)n2)cc1 [Compound I-049] | 100% | 100% | 100% | – | –
16 | CC(C)c1ccccc1N1C(=O)CSC1=NC(=O)Nc1ccc(-c2nc(NC3CC3)n(-c3ccc(OC(F)(F)F)cc3)n2)cc1 [Compound I-029] | – | 100% | 100% | – | 100%
17 | CC(C)c1ccccc1NC(=S)NN=Cc1ccc(-c2nc(NC3CCOC3)n(-c3ccc(OC(F)(F)F)cc3)n2)cc1 (centres unmarked) [Compound I-068] | 100% | 100% | 100% | – | –
18 | CC(C)c1ccccc1N1C(=O)CSC1=NN=Cc1ccc(-c2nc(NC3CC3)n(-c3ccc(OC(F)(F)F)cc3)n2)cc1 [Compound I-058] | 100% | 100% | 100% | – | –
19 | CC(=O)Nc1nc(-c2ccc(C=NN=C3SCC(=O)N3c3ccccc3C(C)C)cc2)nn1-c1ccc(OC(F)(F)C(F)(F)F)cc1 [Compound I-099] | 80% | 100% | – | – | –

Row | SMILES | pest or weed control at 100 g/ha (Diabrotica balteata; [1]) | pest or weed control at 100 g/ha (Spodoptera frugiperda) | pest or weed control at 500 g/ha (Diabrotica balteata; [2]) | pest or weed control at 100 g/ha (Diabrotica balteata; in Triticum aestivum) | pest or weed control at 125 g/ha (Diabrotica balteata; [2])
20 | CC(C)c1ccccc1NC(=S)NN=Cc1ccc(-c2nc(NCCS(C)(=O)=O)n(-c3ccc(OC(F)(F)F)cc3)n2)cc1 [Compound I-093] | 100% | 100% | – | – | –
21 | COCCNc1nc(-c2ccc(NC(=O)N=C3SCC(=O)N3c3ccccc3C(C)C)cc2)nn1-c1ccc(OC(F)(F)F)cc1 [Compound I-080] | 100% | 100% | – | – | –
22 | CC(C)c1ccccc1NC(=S)NN=Cc1ccc(-c2nc(NC3CSC3)n(-c3ccc(OC(F)(F)C(F)(F)F)cc3)n2)cc1 [Compound I-100] | 100% | 100% | – | – | –
23 | CCNc1nc(-c2ccc(C=NNC(=S)Nc3ccccc3C(C)C)cc2)nn1-c1ccc(OC(F)(F)F)cc1 [Compound I-050] | 100% | 100% | 100% | – | –
24 | COC(CCNc1nc(-c2ccc(C=NN=C3SCC(=O)N3c3ccccc3C(C)C)cc2)nn1-c1ccc(OC(F)(F)F)cc1)OC [Compound I-088] | 100% | 100% | – | – | –
25 | CC(C)c1ccccc1N1C(=O)CSC1=NN=Cc1ccc(-c2nc(NC3CCOCC3)n(-c3ccc(OC(F)(F)F)cc3)n2)cc1 [Compound I-087] | 100% | 100% | – | – | –
26 | CC(C)c1ccccc1N1C(=O)CSC1=NN=Cc1ccc(-c2nc(N)n(-c3ccc(OC(F)(F)C(F)(F)F)cc3)n2)cc1 [Compound I-065] | 100% | 100% | 100% | – | –
27 | COCCCNc1nc(-c2ccc(C=NNC(=S)Nc3ccccc3C(C)C)cc2)nn1-c1ccc(OC(F)(F)F)cc1 [Compound I-073] | 100% | 100% | – | – | –
28 | CNc1nc(-c2ccc(C=NN3CCCSC3=Nc3ccccc3C(C)C)cc2)nn1-c1ccc(OC(F)(F)C(F)(F)F)cc1 [Compound I-125, 3-{4-[({2-[(2-isopropylphenyl)imino]-1,3-thiazinan-3-yl}imino)methyl]phenyl}-N-methyl-1-[4-(pentafluoroethoxy)phenyl]-1H-1,2,4-triazol-5-amine] | 100% | 100% | – | – | –
29 | CC(C)c1ccccc1N1C(=O)CSC1=NC(=O)Nc1ccc(-c2nc(NC(=O)C3CC3)n(-c3ccc(OC(F)(F)F)cc3)n2)cc1 [Compound I-035] | 80% | 100% | 100% | – | –
30 | CNc1nc(-c2c(F)cc(C=NN=C3SCC(=O)N3c3ccccc3C(C)C)cc2F)nn1-c1ccc(OC(F)(F)F)cc1 [Compound I-122] | 100% | 100% | – | – | –
31 | CNc1nc(-c2ccc(NC(=O)N=C3SCC(=O)N3c3ccccc3C(C)C)cc2)nn1-c1ccc(OC(F)(F)C(F)(F)F)cc1 [Compound I-027] | – | 100% | 100% | – | 100%
32 | CC(=O)Nc1cc(-c2ccc(C=NN=C3SCC(=O)N3c3ccccc3C(C)C)cc2)nn1-c1ccc(OC(F)(F)F)cc1 [Compound I-039] | 80% | 100% | – | – | –
33 | CON(C)c1nc(-c2ccc(NC(=O)N=C3SCC(=O)N3c3ccccc3C(C)C)cc2)nn1-c1ccc(OC(F)(F)F)cc1 [Compound I-046] | 100% | 100% | 100% | – | –
34 | CNc1nc(-c2ccc(C=NN=C3SCC(=O)N3c3ccccc3C(C)C)cc2)nn1-c1ccc(OC(F)(F)C(F)(F)F)cc1 [Compound I-064] | 100% | 100% | 100% | – | –
35 | CNc1nc(-c2ccc(C=NN=C3SCC(=O)N3c3ccccc3C(C)C)cc2Cl)nn1-c1ccc(OC(F)(F)F)cc1 [Compound I-112] | 100% | 100% | – | – | –
36 | CC(=O)Nc1nc(-c2ccc(NC(=O)N=C3SCC(=O)N3c3ccccc3C(C)C)cc2)nn1-c1ccc(OC(F)(F)F)cc1 [Compound I-034] | 100% | 100% | 100% | – | –
37 | CC(=O)Nc1cc(-c2ccc(C=NNC(=S)Nc3ccccc3C(C)C)cc2)nn1-c1ccc(OC(F)(F)F)cc1 [Compound I-040] | 80% | 100% | 100% | – | –
38 | CC(=O)Nc1nc(-c2ccc(NC(=O)N=C3SCC(=O)N3c3ccccc3C(C)C)cc2)nn1-c1ccc(OC(F)(F)C(F)(F)F)cc1 [Compound I-054] | – | 100% | 100% | – | –
